# Measurements taken from ChEMBL document CHEMBL2413048, “3,4-Dihydroxy- and 3,4-methylenedioxy- phenanthrene-type alkaloids with high selectivity for D2 dopamine receptor” (Bioorg Med Chem Lett, 2013).
# The source made the active and inactive calls. The calls are words filed in the database; no cut-off is given here.
# What was measured:
# [1] = biological target: D(2) dopamine receptor (Rattus norvegicus) (UniProt P61169); experiment: (§1) Displacement of [3H]-raclopride from D2 receptor of Wistar rat striatal membranes after 1 hr by liquid scintillation counting; assay type: cell membranes; conditions: Membrane
# Rattus norvegicus = organism: Rattus norvegicus; experiment: Selectivity ratio of Ki for D1 receptor of Wistar rat striatal membranes to Ki for D2 receptor of Wistar rat striatal membranes; assay type: cell membranes; conditions: Membrane
# D(1A) dopamine receptor = D(1A) dopamine receptor (Rattus norvegicus, UniProt P18901); experiment: Displacement of [3H]-SCH23390 from D1 receptor of Wistar rat striatal membranes after 1 hr by liquid scintillation counting; assay type: cell membranes, Membrane
# D(2) dopamine receptor = D(2) dopamine receptor (Rattus norvegicus, UniProt P61169); experiment: as §1; assay type: cell membranes, Membrane
# Sequence of D(2) dopamine receptor (P61169 whole entry): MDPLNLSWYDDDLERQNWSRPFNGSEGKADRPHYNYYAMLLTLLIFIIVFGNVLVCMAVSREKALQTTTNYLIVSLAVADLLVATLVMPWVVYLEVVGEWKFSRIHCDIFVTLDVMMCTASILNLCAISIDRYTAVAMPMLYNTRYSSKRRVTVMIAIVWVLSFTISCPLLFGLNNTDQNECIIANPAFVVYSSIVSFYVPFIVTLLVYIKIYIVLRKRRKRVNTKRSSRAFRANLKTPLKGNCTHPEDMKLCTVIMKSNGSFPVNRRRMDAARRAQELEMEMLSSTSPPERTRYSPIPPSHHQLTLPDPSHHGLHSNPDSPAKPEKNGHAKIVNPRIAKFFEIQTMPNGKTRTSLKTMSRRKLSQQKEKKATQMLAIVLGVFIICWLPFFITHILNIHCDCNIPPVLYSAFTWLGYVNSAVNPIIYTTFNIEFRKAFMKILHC
# Sequence of D(2) dopamine receptor (Rattus norvegicus) (P61169 whole entry): as above
# Sequence of D(1A) dopamine receptor (P18901 whole entry): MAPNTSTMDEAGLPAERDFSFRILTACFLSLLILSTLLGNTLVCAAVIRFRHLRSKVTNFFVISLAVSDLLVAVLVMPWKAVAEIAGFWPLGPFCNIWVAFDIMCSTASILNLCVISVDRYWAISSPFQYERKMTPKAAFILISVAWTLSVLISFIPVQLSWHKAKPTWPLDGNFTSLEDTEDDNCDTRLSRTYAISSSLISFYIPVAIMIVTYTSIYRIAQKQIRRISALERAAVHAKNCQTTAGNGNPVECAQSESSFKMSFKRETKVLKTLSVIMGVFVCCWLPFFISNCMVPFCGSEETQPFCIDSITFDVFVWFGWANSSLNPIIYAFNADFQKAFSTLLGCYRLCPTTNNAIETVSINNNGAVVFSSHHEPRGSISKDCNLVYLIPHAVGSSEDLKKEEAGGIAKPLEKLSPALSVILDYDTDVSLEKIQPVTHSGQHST
SMILES,Activity [1],Ratio Ki (Rattus norvegicus),Ki (D(1A) dopamine receptor; read-out: Ki) [nM],Ki (D(1A) dopamine receptor; read-out: pKi (converted)) [nM],Ki (D(2) dopamine receptor; read-out: Ki) [nM],Ki (D(2) dopamine receptor; read-out: pKi (converted)) [nM]
COc1cc2c3c(c1OC)-c1ccccc1CC3[N+](C)(C)CC2 (configuration not stated),inactive,,,,,
C[N+]1(C)CCc2cc3c(c4c2C1Cc1ccccc1-4)OCO3 (racemic),inactive,,,,,
COc1cc(CCN(C)C)c2ccc3ccccc3c2c1OC,,9.1,2940,2920,323,321
CN(C)CCc1cc2c(c3c1ccc1ccccc13)OCO2,,96,6350,4140,66,64.7
COc1cc2c3c(c1OC)-c1ccccc1CC3N(C)CC2 (racemic) [(+/-)-NUCIFERINE],,,630,587,209,173
CN1CCc2cc(O)c(O)c3c2C1Cc1ccccc1-3 (configuration not stated),,8.9,401,397,45,38.6
CN1CCc2cc3c(c4c2C1Cc1ccccc1-4)OCO3 (racemic) [ROEMERINE],,4.4,377,324,84,
CN(C)CCc1cc(O)c(O)c2c1ccc1ccccc12,,157,7700,6190,49,38.5

# The next lines start with results.
Activity [1],SMILES,Ratio Ki (Rattus norvegicus),Ki (D(1A) dopamine receptor; read-out: Ki) [nM],Ki (D(1A) dopamine receptor; read-out: pKi (converted)) [nM],Ki (D(2) dopamine receptor; read-out: Ki) [nM],Ki (D(2) dopamine receptor; read-out: pKi (converted)) [nM]
inactive,C[N+](C)(C)CCc1cc2c(c3c1ccc1ccccc13)OCO2,,,,,
inactive,COc1cc(CC[N+](C)(C)C)c2ccc3ccccc3c2c1OC,,,,,
